Reference: US20120226031A1, “PALMARUMYCIN BASED INHIBITORS OF THIOREDOXIN AND METHODS OF USING SAME” (ARIZONA BOARD OF REGENTS, ACTING ON BEHALF OF THE …, priority 2005, published 2012)
Where two headings read alike, the source gives them in different places.

How the values were obtained:
[1] = system: MCF-7 human breast cancer cells; assay: MCF-7 breast cancer cell growth inhibition; format: cell-based
Procedure: MCF-7 human breast cancer cells were grown in medium containing 1 μM selenium (Se) for 7 days which increased cellular thioredoxin reductase activity by about 5 fold as previously reported.

[2] = target: T1, human thioredoxin reductase (Homo sapiens, UniProt Q16881); assay: Inhibition of purified human thioredoxin reductase (TrxR/TR); format: biochemical
T1 construct: (placenta); from tissue; host or cells: human placenta
T1 sequence (Q16881 151-649 limits assumed): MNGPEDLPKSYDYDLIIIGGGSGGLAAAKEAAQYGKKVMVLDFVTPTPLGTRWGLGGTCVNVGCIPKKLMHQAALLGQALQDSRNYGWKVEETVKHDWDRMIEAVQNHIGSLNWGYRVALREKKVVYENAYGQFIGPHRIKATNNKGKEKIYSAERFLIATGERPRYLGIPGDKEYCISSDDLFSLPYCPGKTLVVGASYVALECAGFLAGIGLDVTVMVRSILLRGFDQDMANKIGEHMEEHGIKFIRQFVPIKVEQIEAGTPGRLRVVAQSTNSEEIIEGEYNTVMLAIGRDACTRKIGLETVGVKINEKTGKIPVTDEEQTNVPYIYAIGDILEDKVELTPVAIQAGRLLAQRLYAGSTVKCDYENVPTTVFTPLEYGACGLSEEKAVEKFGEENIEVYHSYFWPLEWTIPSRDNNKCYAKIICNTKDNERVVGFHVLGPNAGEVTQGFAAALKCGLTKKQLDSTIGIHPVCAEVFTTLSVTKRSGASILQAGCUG

[3] = Stability in fresh mouse plasma at room temperature; format: in vitro ADME
Procedure: (§1) Two metabolite peaks could be seen at 5 minutes, but were undetectable by 30 minutes.

[4] = Aqueous solubility; format: physicochemical
[5] = Plasma levels in mice after i.v. administration; format: in vivo, mouse; set-up: dose or concentration left out as unconfirmed; conditions: after PX-916 i.v. to mice
Procedure: as §1

[6] = pH dependent stability in water / 0.1M sodium phosphate buffer; format: physicochemical; conditions: for half-life at 100 g/ml / T1/2: 100 g/ml in 0.1M sodium phosphate buffer
Procedure: PX-916 was stable as a stock solution in ethanol at room temperature with a half life of >5 days. […] Therefore, for in vitro studies PX-916 was used as a stock solution in ethanol, and for in vivo studies made fresh in pH 4.0 buffer vehicle.
Further palmarumycin analogs were synthesized and tested. The following analogs were synthesized: eee269-II, eee86-III, eee263-II and eee273-II. The stability of the analogs was measured in various solutions.

[7] = Stability of prodrugs in mouse plasma (formation of parent compound); format: in vitro ADME; conditions: first 20 min of incubation at 1 mg/ml and 33° C.
Procedure: (§2) The stability of the analogs and formation of the parent compound in plasma was measured and is presented in FIG. 7, FIG. 8 and Table 6 (measured by the formation of parent compound over the first 20 min of incubation at 1 mg/ml and at 33° C.), below.

[8] = Stability of prodrugs in human plasma (formation of parent compound); format: in vitro ADME; conditions: first 20 min of incubation at 1 mg/ml and 33° C.
Procedure: as §2

[9] = Stability of prodrugs in ES1e mouse plasma (formation of parent compound); format: in vitro ADME; conditions: first 20 min of incubation at 1 mg/ml and 33° C.
Procedure: as §2

[10] = Homo sapiens, MCF7, Table 1, read-out: MCF-7 growth inhibition IC50
[11] = Table 1, read-out: TrxR inhibitory activity IC50
[12] = Table 2, read-out: Inhibition of human thioredoxin reductase IC50

Row | Compound | IC50 [1, 10] [µM] | IC50 [2, 11] [µM] | IC50 [2, 12] [µM] | half-life at 100 g/ml ([6]; pH 4.0) [h] | half-life at 100 g/ml ([6]; pH 7.0) [h] | other results
1 | CC(C)C(N)C(=O)Oc1ccc2c3c(cccc13)OC1(C=CC(=O)c3ccccc31)O2 (stereo not shown) [Compound 11] | 2.2 | 0.62 | – | – | – | –
2 | O=C1C=CC2(Oc3cccc4c(OCCN5CCOCC5)ccc(c34)O2)c2ccccc21 (stereo not shown) [Compound 13] | 1.2 | 1.6 | – | – | – | –
3 | O=C1C=CC2(Oc3cccc4c(OCCN5CCOCC5)ccc(c34)O2)c2cccc(O)c21 (stereo not shown) [Compound 14] | 2.6 | 4.2 | – | – | – | –
4 | O=C1C=CC2(Oc3cccc4c(OC5OC(CO)C(O)C(O)C5O)ccc(c34)O2)c2cccc(O)c21 (stereo not shown) [eee86-III] | – | – | – | > 100 | > 100 | –
5 | CC(C)(N)C(=O)Oc1ccc2c3c(cccc13)OC1(C=CC(=O)c3c(O)cccc31)O2 (stereo not shown) [eee263-II] | – | – | – | – | – | formation of parent compound, Mouse Plasma [7]: 42 area/20 min; formation of parent compound, Human plasma [8]: 81 area/20 min; formation of parent compound, ES1e mouse plasma [9]: 82 area/20 min; T1/2 ([6]; pH 4.0): >100 h; T1/2 ([6]; pH 7.0): >100 h
6 | CC(C)(NNC1CC(=O)c2c(O)cccc2C12Oc1cccc3c(O)ccc(c13)O2)C(N)=O (stereo not shown) [eee269-II] | – | – | – | > 100 | 0.2 | stability in aqueous solutions ([6]; in words): unstable in aqueous solutions
7 | NC(Cc1ccccc1)C(=O)Oc1ccc2c3c(cccc13)OC1(C=CC(=O)c3c(O)cccc31)O2 (stereo not shown) [eee273-II] | – | – | – | > 100 | > 100 | solubility at 1 mg/ml ([4]; 1 mg/ml, plasma stability study): very insoluble

Second part, led by results:

Row | IC50 [1, 10] [µM] | IC50 [2, 11] [µM] | IC50 [2, 12] [µM] | half-life at 100 g/ml ([6]; pH 4.0) [h] | half-life at 100 g/ml ([6]; pH 7.0) [h] | Compound | other results
8 | – | – | 3.2 | – | – | COc1ccc2c3c(cccc13)OC1(C=CC(=O)c3ccccc31)O2 (stereo not shown) [PX-911] | IC50 ([1]; Homo sapiens, MCF7, Table 2, read-out: Inhibition of MCF-7 breast cancer cell growth IC50): 9.2 µM
9 | 2.6 | 0.2 | 0.27 | – | – | O=C1C=CC2(Oc3cccc4c(O)ccc(c34)O2)c2cccc(O)c21 (stereo not shown) [PX-960] | IC50 ([1]; Homo sapiens, MCF7, read-out: Inhibition of MCF-7 breast cancer cell growth IC50): 4.1 µM; half life in mouse plasma [3]: about 31 minutes; half-life [3]: ~0.517 h; solubility ([4]; water, read-out: water solubility): < 0.1 mg/mL; detection of PX-960 in plasma ([5]; at 5 minutes): only a very small peak; detection of PX-960 in plasma ([5]; at 30 minutes): No PX-960 was detected
10 | – | – | 0.35 | – | – | O=C1C=CC2(Oc3cccc4cccc(c34)O2)c2cccc(O)c21 [palmarumycin C1, palmarumycin CP1, reference compound] | IC50 ([1]; Table 2, read-out: Inhibition of MCF-7 breast cancer cell growth IC50): 1 µM; IC50 ([1]; text b151, summary of Table 2, read-out: concentration of cell growth inhibition of MCF-7 cells): 1 to 3 µM; solubility in aqueous media ([4]; in words): almost insoluble in aqueous media
